Measurements reported in US20190021992A1, “NEW IMPROVED COMPOSITION COMPRISING AT LEAST ONE CADOTRIL” (Johnson & Johnson Consumer Inc., priority 2016, published 2019).
Several values for one entry are separate records, joined by “and”; a condition that tells them apart may be missing. Equal values may be shown once.

Assay: Oral administration pharmacokinetic studies in rats (thiorphan plasma concentration, HPLC)
Format: in vivo, Sprague Dawley rats
Protocol: Formulations were administered to rats at doses expected to be pharmacologically effective for estimation of the bioavailability. Blood was drawn at specified time points and plasma concentration of thiorphan was assessed.
Animals: Sprague Dawley rats, approximate weight 250 g. Animal preparation: Deprived of food (but not of water) during 18 h preceding dosing. Mode of administration: thiorphan (i.v.) and racecadotril (p.o.) by oral gavage. Blood sampling volume: 300 μl/per sample.
Blood was drawn at specified time points. Plasma was immediately frozen and kept at −80° C. for assessment of thiorphan concentration by HPLC.
Formulation nr. 8 (example 2) was administered to rats p.o. at dose of 20 mg/kg. One group of rats was given thiorphan i.v. at a dose of 13.4 mg/kg as a reference. […]

[1] = individual rats, thiorphan i.v. 13.4 mg/kg, 13.4 mg/kg

- AUC(0-inf) (Sprague Dawley, rat, plasma, iv, 13.4 mg/kg, average of 3 rats, thiorphan i.v. 13.4 mg/kg, read-out: AUCinf (thiorphan), Avg): 1710 ng·h/mL
- Cmax (Sprague Dawley, rat, plasma, iv, 13.4 mg/kg, individual rats, thiorphan i.v. 13.4 mg/kg): 15900 ng/mL
- Tmax (Sprague Dawley, rat, plasma, iv, individual rats, thiorphan i.v. 13.4 mg/kg): 1.98 min
- Cmax (thiorphan) [1]: 17649 ng/mL and 21914 ng/mL
- T_half (thiorphan) [1]: 1.31 h and 0.57 h and 1.81 h
- Rel BA (%) (thiorphan i.v. 13.4 mg/kg (reference)): 100%
Compound: O=C(O)CNC(=O)C(CS)Cc1ccccc1 (centres unmarked) [Thiorphan, thiorphan]
- AUCinf (thiorphan) [1]: 2403 ng·h/mL and 1857 ng·h/mL and 871 ng·h/mL
- AUCt (thiorphan) [1]: 2392 ng·h/mL and 1843 ng·h/mL and 857 ng·h/mL
